Measured values as given in US10273206B2 (ALLERGAN, INC., priority 2014, dated 2019).
Where a name gives a salt, the structure may show the parent alone. Read-outs that look alike come from different tables or passages of the source. Values belong to the compound of their own block, whether it stands above or below them.

Legend:
[1] = pH-solubility determination (shake flask in aqueous media, HPLC quantitation); type: physicochemical; conditions: thermodynamic from solid
Procedure: The pH was checked, and adjusted if necessary, at intervals of 1, 5, 23, 28 and 47 hrs. An aliquot of sample was taken off at 24 hrs and the final pH was recorded. The suspension was then filtered through a glass fiber C filter. The filtrate was then diluted by an appropriate factor. This was repeated at 48 hours. Quantitation was by HPLC with reference to 6 standard solutions of concentrations between 0.3873-0.0008 mg/ml dissolved in 66:21:13 H2O:ACN:MeOH.

[2] = Physical stability on storage at controlled temperature/relative humidity; type: physicochemical
[3] = Dissolution rate compared with the free acid; type: physicochemical; conditions: compared with bimatoprost free acid
[4] = Gravimetric vapor sorption (GVS) analysis; type: physicochemical
Procedure: The salt was then crystallized from ethyl acetate as follows. The lyophilized solid sample in ethyl acetate was subjected to initial heat/cool cycles using an Anachem React-Array. The sample was then subjected to three heat/cool cycles by using the following procedure: heating to 50° C. at 5° C./min, holding at 50° C. for 30 minutes, followed by cooling to 0° C. at 0.1° C./min, holding at 0° C. for 1 hour under constant stirring at 500 rpm. The recovered material (crystalline form 1) was analyzed by XRPD (FIG. 6), ^1H NMR, thermal analysis, and gravimetric vapor sorption (GVS) analysis, as summarized in Table 2.
Without being bound by any particular theory, the significant uptake of moisture may be a result of the large specific surface area of the material. On desorption, the adsorbed water was rapidly lost with no equilibrium established. At the end of the gravimetric vapor sorption (GVS) cycle, at 40% RH, the overall sample mass increased by 5 wt %.

[5] = base (source of basic counter ion) used in salt screening, Table 1; cited from earlier work
[6] = Measured pKa of bimatoprost acid, used for the Henderson-Hasselbalch fit; type: physicochemical; conditions: measured pKa used to fit solubility vs. pH plot

solubility thermodynamic ([1]; 25 °C, aqueous buffer, at pH 6.8, read-out: solubility): ~250 mg/mL
solubility at 48 h ([1]; 25 °C, pH 2, aqueous buffer, pH 2 (solubility of the free acid), 25° C., FIG. 5, read-out: intrinsic solubility): 1.39 mg/mL
solubility at 48 h ([1]; 25 °C, pH 6.5, aqueous buffer, at pH 6.5, see FIG. 5, read-out: solubility): ≥ 250 mg/mL
solubility at 48 h ([1]; 25 °C, pH 6.5, aqueous buffer, pH above 6.5, 25° C., FIG. 5, read-out: solubility of the salt): > 250 mg/mL
solubility thermodynamic ([1]; pH 6.5, aqueous buffer, pH above 6.5, 25° C., FIG. 5, read-out: solubility of the salt): ≥ 250 mg/mL
physically stable for (time) ([2]; 25° C./60% relative humidity (RH), open container closure): > 3 months
physically stable for (time) ([2]; 40° C./75% RH, closed container closure): > 3 months
GVS analysis result ([4]; 90% RH): 90% RH, no deliquescence, no hydrate
overall sample mass increase at the end of the GVS cycle ([4]; at 40% RH, end of GVS cycle): 5 wt %
XRPD re-analysis of the sample post GVS analysis (form change) ([4]; post GVS analysis, FIG. 3): no change in the crystalline Form 1
SMILES: O=C(O)CCC/C=C\C[C@@H]1[C@@H](/C=C/[C@@H](O)CCc2ccccc2)[C@H](O)C[C@@H]1O [tromethamine salt of (Z)-7-[3,5-Dihydroxy-2-((E)-3-hydroxy-5-phenyl-pent-1-enyl)-cyclopentyl]-hept-5-enoic acid]
dissolution rate relative to the free acid [3]: faster dissolution rate than the free acid
moisture uptake behaviour on storage ([4]; stored at or above 80% RH): behaves hygroscopically, with significant moisture uptake observed

SMILES: NC(=O)NCCC[C@H](N)C(=O)O [Citrulline]
pKa [5]: 7.00

SMILES: NCCN [Ethylenediamine]
pKa [5]: 10.09

SMILES: CCNC[C@H](O)[C@@H](O)[C@H](O)[C@H](O)CO [N-ethyl-glucamine]
pKa [5]: 8.03

pKa [6]: 4.76
SMILES: O=C(O)CCC/C=C\C[C@@H]1[C@@H](/C=C/[C@@H](O)CCc2ccccc2)[C@H](O)C[C@@H]1O [bimatoprost acid, (Z)-7-[3,5-Dihydroxy-2-((E)-3-hydroxy-5-phenyl-pent-1-enyl)-cyclopentyl]-hept-5-enoic acid]

SMILES: CCN(CC)CCO [2-diethylamino ethanol]
pKa [5]: 9.58

SMILES: C[N+](C)(C)CCO [Choline]
pKa [5]: 11.00

SMILES: OCCN1CCOCC1 [Hydroxyethyl-morpholine]
pKa [5]: 7.39
